# System: healthy male volunteers
# Test: Randomized, double-blind, placebo-controlled gastric emptying study (99Tc radiolabeled meal, external scintigraphy)
# Type: in vivo, human
# Procedure: Methodology: This is a single center, double-blind, randomized, parallel group trial using a placebo control or tegaserod 6 mg t.i.d. in combination with omeprazole 20 mg b.i.d. Gastric emptying is assessed using a standardized method that has been previously validated and found to be sensitive and specific. After an overnight fast, the subjects are asked to ingest a standardized ^99Tc radiolabeled meal (250 ml EggBeater, the equivalent of two eggs, two slices of white bread, 30 cc of strawberry jam and 120 ml of water). The level of radioactivity in gastric contents is measured by external scintigraphy immediately following completion of the meal and then at 60, 120 and 240 minutes after the end of the meal.
# Number of subjects: 40 healthy male volunteers (20 per group)
# Investigational drug: Tegaserod 6 mg tablets (supplied by Novartis Canada, but are normal 6 mg Zelnorm tablet obtainable as prescription) for oral administration. Each dose consists of a tablet to be taken with a glass of water within 15-30 minutes before mealtime three times daily. […]
# Efficacy: The primary efficacy parameter is time to half emptying (T1/2) of gastric contents. The secondary efficacy endpoints were the calculated lag phase, and percent of gastric contents remaining in the stomach at 60, 120 and 240 minutes after ingestion of a standard meal. […]
structure (smiles),measurement,setting,value
"CCCCCNC(=N)N/N=C/c1c[nH]c2ccc(OC)cc12 [tegaserod, 3-(5-methoxy-1H-indol-3-yl-methylene)-N-pentylcarbazimidamide]",gastric emptying at all the studied time points versus baseline,"tegaserod 6 mg t.i.d. in combination with omeprazole 20 mg b.i.d., oral, 14 days",not statistically different from the respective baseline values
same,development of delayed gastric emptying caused by omeprazole,"tegaserod added to omeprazole, healthy male volunteers",prevented development of delayed gastric emptying
